Assay type in all cases: cell-based
In data set [1] the test system is phosphorylated ERK (pERK). Put plainly: Detection of phosphorylated ERK (pERK), AlphaLISA in A375 cells. The following applies: four hours incubation, inhibition of ERK phosphorylation, read-out: PERK ELISA (IC50). As to the method: A375 cells were counted and seeded at 10,000 cells/well in 384 well plates (Corning 3764) and allowed to adhere overnight.
Compounds were dissolved and serially diluted in DMSO. The compounds were then added, mixed, and incubated for four hours at 37° C., 5% CO2. Compounds were added using four-fold dilutions at final concentrations ranging from 10 μM to 0.01 nM. DMSO only and 10 uM staurosporine were added as high and low controls.
Following the four-hour incubation with compounds, cell lysates were prepared and AlphaLISA assay measuring phosphorylated ERK was performed. Media was removed using the Apricot Designs pipettor. Lysis buffer was made from 1× AlphaLISA SureFire Assay Kit (AlphaLISA SureFire Ultra pERK 12 (Thr202/Tyr204) ALSU-PERK-A50K) lysis buffer with protease and phosphatase inhibitors. Cells were lysed by adding 10 uL to all the wells and mixed for 40 minutes on a plate shaker. 10 uL cell lysate was transferred to a new Optiplate (PerkinElmer 6007290) and incubated with 5 uL 1× acceptor mix for 2 hours in the dark. 5 uL of 1× donor mix was added to all wells and mixed by shaking followed by overnight incubation in the dark.
pERK AlphaLISA signal was read on the Envision using standard AlphaLISA settings. Percent inhibition of ERK phosphorylation was calculated by % Inhibition=100×(LumHC−LumSample)/(LumHC−LumLC). The low and high controls (LC/HC) are generated from lysate from wells with cells treated with DMSO or […] Staurosporine (BioAustralis, cat #BIA-S1086), […]. IC50 values were calculated by fitting the Curve using XLfit (v5.3.1.3), equation 201: Y=Bottom+(Top−Bottom)/(1+10^((Log IC50−X)*HillSlope)).
(In Alpha technology, singlet oxygen from a donor bead excites a nearby acceptor bead.)

In data set [2] the test system is A375 (BRAF V600E). The experiment in a line: Cell viability assay (CellTiter Glo). As to the method: (§1) Cell viability was measured in the following MAPK pathway mutant cancer cell lines: A375 (BRAF V600E), HepG2 (NRAS Q61L), SK-MEL-30 (NRAS Q61K), and OCI-AML-2 (MBNL1-CRAF fusion). Cell viability was also measured in K562 cells.
(§2) A375, HepG2, SK-MEL-30 and OCI-AML-2 cells were grown in the appropriate growth medium as described in Table B2 below, and harvested at 50-80% confluence. Cells were counted and seeded at their appropriate density (see Table B1) in a 384-well plate (Corning 3570). A375, HepG2 and SK-MEL-30 were allowed to adhere overnight prior to treatment and the OCI-AML-2 were treated immediately for the indicated drug treatment times (Table 6).
(§3) Table 6 provides the growth media, number of cells seeded per well and drug treatment times for the each cell line. K562 cells were grown as described in Example B1 above.
(§4) Compounds were dissolved in DMSO and serially diluted. Serially-diluted compound or a DMSO only control (high control, “HC”) was added to the plated cells in each well. Compounds were tested at concentrations of about 10 μM to 0.51 nM, using three-fold dilutions. The final proportion of DMSO never exceeded 0.1%.
(§5) Plates were placed in a 37° C., […] incubator for the indicated treatment times (Table B1). Plates were then removed from the incubator and equilibrated for 15 minutes at room temperature. 40 μl of CellTiter Glo reagent (Promega) was added to measure the relative level of metabolically active cells by quantifying intracellular ATP concentrations. Plates were incubated for 30 minutes at room temperature, and luminescence was measured. Percent viability was normalized to a vehicle control only using the following formula: 0 viability=100×(LumSample−LumLC)/(LumHC−LumLC). Graphical curves were fitted using a nonlinear regression model with a sigmoidal dose response.
For orientation: In ATP-based viability assays light output follows the ATP content of the culture.

In data set [3] the test system is OCI-AML-2 (MBNL1-CRAF fusion). Put plainly: Cell viability assay (CellTiter Glo). The settings on record: OCI-AML-2, 1000 cells per well, read-out: BRAF Cytotoxicity (IC50, nM) OCI-AML-2. As to the method: as §1, §2, §3, §4, §5
Data set [4] relates to HepG2 (NRAS Q61L). Put plainly: Cell viability assay (CellTiter Glo). The following applies: HepG2, 750 cells per well, 120 hours; read-out: BRAF Cytotoxicity (IC50, nM) HEPG2. As to the method: as §1, §2, §3, §4, §5
Data set [5] concerns SK-MEL-30 (NRAS Q61K). The experiment in a line: Cell viability assay (CellTiter Glo). The following applies: SK-MEL-30, 750 cells per well, 120 hours; read-out: BRAF Cytotoxicity (IC50, nM) SK-MEL-30. As to the method: as §1, §2, §3, §4, §5
Where [6] appears, read: A375, 1000 cells seeded per well, 72 hours, read-out: BRAF Cytotoxicity (IC50, nM) A375 (1000 cells).
[7] abbreviates: A375, 250 cells seeded per well, 72 hours, read-out: BRAF Cytotoxicity (IC50, nM) A375 (250 cells).
Where [8] appears, read: Homo sapiens, A-375, 72 h, A375, 1000 cells seeded per well, read-out: BRAF Cytotoxicity (IC50, nM) A375 (1000 cells).

Where a name gives a salt, the structure may show the parent alone. Read-outs that look alike come from different tables or passages of the source.

Regarding `Cc1cc([C@H](O)C(C)(F)F)ncc1-c1cc2cnc(NC(=O)C3CC3)cc2n(C)c1=O` (single isomer, unassigned) [Compound 116, formate], in data set [1] (Homo sapiens, A-375, 4 h), the IC50 was determined as 0.0781 µM.

On to `Cc1cc([C@@H](O)C(C)(F)F)ncc1-c1cc2cnc(NC(=O)C3CC3)cc2n(C)c1=O` (single isomer, unassigned) [Compound 117], for which the IC50 in data set [1] (Homo sapiens, A-375, 4 h) came out at 0.0613 µM.

Consider `CC[C@@H](O)c1cc(C)c(-c2cc3cnc(NC(=O)[C@@H]4CC4(F)F)cc3n(C)c2=O)cn1` (single isomer, unassigned) [Compound 123], for which the IC50 in data set [1] (Homo sapiens, A-375, 4 h) is 0.119 µM.

As to `CC[C@H](O)c1cc(C)c(-c2cc3cnc(NC(=O)[C@@H]4CC4(F)F)cc3n(C)c2=O)cn1` (single isomer, unassigned) [Compound 124], the IC50 in data set [1] (Homo sapiens, A-375, 4 h) stood at 0.0635 µM.

As to `CCCC(O)c1cc(C)c(-c2cc3cnc(NC(=O)C4CC4)cc3n(C)c2=O)cn1` (single isomer, unassigned) [Example S42, Enantiomer A, N-(3-(6-(1-hydroxybutyl)-4-methylpyridin-3-yl)-1-methyl-2-oxo-1,2-dihydro-1,6-naphthyridin-7-yl)cyclopropanecarboxamide], the IC50 in data set [1] came to 0.0551 µM; in data set [2] (setting [6]), 930 nM.

In the case of `CCCC(O)c1cc(C)c(-c2cc3cnc(NC(=O)C4CC4)cc3n(C)c2=O)cn1` (single isomer, unassigned) [Example S42, Enantiomer B, N-(3-(6-(1-hydroxybutyl)-4-methylpyridin-3-yl)-1-methyl-2-oxo-1,2-dihydro-1,6-naphthyridin-7-yl)cyclopropanecarboxamide], the figures for the IC50 in data set [1] and in data set [2] (setting [6]) were 0.0147 µM and 141 nM, respectively.

Take `CCC(O)c1cc(C)c(-c2cc3cnc(NC(=O)[C@H]4CC4(F)F)cc3n(C)c2=O)cn1` (single isomer, unassigned) [Example S49, Isomer A]: the IC50 in data set [1] was 0.0738 µM; in data set [3] (72 hours) it was more than 10000 nM; in data set [4], 2750 nM; in data set [5], more than 10000 nM.

For the molecule `CCC(O)c1cc(C)c(-c2cc3cnc(NC(C)=O)cc3n(C)c2=O)cn1` (single isomer, unassigned) [Example S59, Enantiomer B, N-(3-(6-(1-hydroxypropyl)-4-methylpyridin-3-yl)-1-methyl-2-oxo-1,2-dihydro-1,6-naphthyridin-7-yl)acetamide], the IC50 in data set [1] was determined as 0.373 µM.

Take `COCC(O)c1cc(C)c(-c2cc3cnc(NC(=O)C4CC4)cc3n(C)c2=O)cn1` (single isomer, unassigned) [Example S60, Enantiomer A, N-(3-{6-[1-hydroxy-2-methoxyethyl]-4-methylpyridin-3-yl}-1-methyl-2-oxo-1,6-naphthyridin-7-yl)cyclopropanecarboxamide]: the IC50 in data set [1] is 0.12 µM; in data set [4], more than 10000 nM; in data set [2] (setting [7]), 5950 nM; in data set [5], more than 10000 nM.

Turning to `COCC(O)c1cc(C)c(-c2cc3cnc(NC(=O)C4CC4)cc3n(C)c2=O)cn1` (single isomer, unassigned) [Example S60, Enantiomer B, N-(3-{6-[1-hydroxy-2-methoxyethyl]-4-methylpyridin-3-yl}-1-methyl-2-oxo-1,6-naphthyridin-7-yl)cyclopropanecarboxamide], the IC50 in data set [1] was 0.019 µM; in data set [4] it was 225 nM; in data set [2] (setting [7]), 1070 nM; in data set [5] it was 3260 nM.

With `CCCC(O)c1cc(C)c(-c2cc3cnc(NC(C)=O)cc3n(C)c2=O)cn1` (single isomer, unassigned) [Example S67, Enantiomer B, N-(3-{6-[1-hydroxybutyl]-4-methylpyridin-3-yl}-1-methyl-2-oxo-1,6-naphthyridin-7-yl)acetamide], the IC50 in data set [1] was 0.0239 µM.

As to `CCC(O)c1cc(C)c(-c2cc3cnc(NC(=O)[C@@H]4C[C@@H]4F)cc3n(C)c2=O)cn1` (single isomer, unassigned; isomer b) [Example S40, Isomer B], the IC50 in data set [1] was 0.23 µM; in data set [2] (setting [6]) it was 940 nM.

Turning to `CCC(O)c1cc(C)c(-c2cc3cnc(NC(=O)C4CC4)cc3n(C)c2=O)c(C)c1` (stereo in doubt) [Compound 118, (R)—N-(3-(4-(1-hydroxypropyl)-2,6-dimethylphenyl)-1-methyl-2-oxo-1,2-dihydro-1,6-naphthyridin-7-yl)cyclopropanecarboxamide], in data set [1], the IC50 stood at 1.25 µM.

Turning to `CCC(O)c1cc(C)c(-c2cc3cnc(NC(=O)C4CC4)cc3n(C)c2=O)c(C)c1` (stereo in doubt) [Compound 119, (R)—N-(3-(4-(1-hydroxypropyl)-2,6-dimethylphenyl)-1-methyl-2-oxo-1,2-dihydro-1,6-naphthyridin-7-yl)cyclopropanecarboxamide], the IC50 in data set [1] was found to be 0.313 µM.

In the case of `CCC(O)c1cc(C)c(-c2cc3cnc(NC(=O)C4CC4)cc3n(C)c2=O)c(C)c1` (stereo in doubt) [Compound 120, (S)—N-(3-(4-(1-hydroxypropyl)-2,6-dimethylphenyl)-1-methyl-2-oxo-1,2-dihydro-1,6-naphthyridin-7-yl)cyclopropanecarboxamide], in data set [1], the IC50 was more than 10 µM.

`CCC(O)c1cc(C)c(-c2cc3cnc(NC(=O)C4CC4)cc3n(C)c2=O)c(C)c1` (stereo in doubt) [Compound 121, (S)—N-(3-(4-(1-hydroxypropyl)-2,6-dimethylphenyl)-1-methyl-2-oxo-1,2-dihydro-1,6-naphthyridin-7-yl)cyclopropanecarboxamide]: the IC50 in data set [1] was determined as 0.151 µM.

For the molecule `CC[C@@H](O)c1cc(C)c(-c2cc3cnc(NC(=O)C4CC4)cc3n(C)c2=O)cn1` [Compound 68, (R)—N-(3-(6-(1-hydroxypropyl)-4-methylpyridin-3-yl)-1-methyl-2-oxo-1,2-dihydro-1,6-naphthyridin-7-yl)cyclopropanecarboxamide], the IC50 worked out at 0.249 µM in data set [1] (Homo sapiens, A-375, 4 h); 2510 nM in data set [3] (Homo sapiens, OCI-AML2, 72 h); 871 nM in data set [2] (setting [8]).

Turning to `CC[C@@H](O)c1cc(C)c(-c2cc3cnc(NC(=O)[C@H]4C[C@H]4F)cc3n(C)c2=O)cn1` [Compound 109, (1R,2R)-2-fluoro-N-(3-(6-((R)-1-hydroxypropyl)-4-methylpyridin-3-yl)-1-methyl-2-oxo-1,2-dihydro-1,6-naphthyridin-7-yl)cyclopropane-1-carboxamide], the IC50 in data set [1] (Homo sapiens, A-375, 4 h) was determined as 0.0766 µM; in data set [2] (setting [8]), 1630 nM.

In the case of `Cc1cc(-n2cccn2)ncc1-c1cc2cnc(NC(=O)C3CC3)cc2n(C)c1=O` [Compound 122, N-{1-methyl-3-[4-methyl-6-(pyrazol-1-yl)pyridin-3-yl]-2-oxo-1,6-naphthyridin-7-yl}cyclopropanecarboxamide], in data set [1] (Homo sapiens, A-375, 4 h), the IC50 is 0.478 µM.

Usually IC50 stands for the concentration needed to halve the response being measured.

The record behind these values is patent US20240287062A1, “NAPHTHYRIDONE COMPOUNDS FOR INHIBITION OF RAF KINASES AND/OR BCR-ABL TYROSINE KINASES” (Enliven Inc., priority 2021, published 2024).
